Test results from patent US9597407B2, “Targeted antimicrobial moieties” (C3 Jian, Inc., priority 2009, dated 2017).
“Also recorded” adds a separate entry of the source.

Columns and labels:
microorganisms = test: Morphology, biofilm and growth disruption by peptides (Table 5); format: cell-based; set-up: key: A: Peptide aggregates; B: Less hyphal formation; Clumps; Diffuse clumps and small polyps; F: Diffuse growth; H: Thin; I: Growth inhibition; Microcolony formation; Rippled; Small polyps; Thick; W: Halo formation on top, microlonies on bottom
Description: In certain embodiments peptides that induce alterations in phenotype or other biological activities can also be used as antimicrobial effector moieties.

bacteria = test: Binding of targeting peptides to microorganisms (Table 3); settings: preferably 1x PBS; for Target(s) (microorganisms bound by the targeting peptide) / Target(s) (microorganism bound by the targeting peptide): peptide binding in aqueous buffers that varied depending on peptide solubility
[1] = microorganism bound by the targeting peptide, binding in aqueous buffers chosen by peptide solubility
[2] = microorganism the targeting peptide binds, binding in aqueous buffers that varied with peptide solubility

Substance: PDAPRTCYHKPILAALSRIVVTDR [PF-524]
- Organism, effect (morphology, biofilm and growth disruption) (microorganisms; E. coli): E. coli (M)
- Organism, effect (morphology, biofilm and growth disruption) (microorganisms; E. faecalis): E. faecalis (C)
- Organism, effect (morphology, biofilm and growth disruption) (microorganisms; MRSA): MRSA (C)
- Organism, effect (morphology, biofilm and growth disruption) (microorganisms; S. pneumoniae): S. pneumoniae (M)
- Target(s) (microorganisms bound by the targeting peptide) (bacteria): S. epidermidis and E. coli and P. aeruginosa and C. albicans and MRSA and S. pneumoniae and E. faecalis and C. jeikeium

Substance: PF-C181 (KMRAGQVVFIYKLILVLLFYVLQKLFDLKKGCF; Peptide with targeting and/or antimicrobial activity)
- Organism, effect (morphology, biofilm and growth disruption) (microorganisms; F. nucleatum): F. nucleatum (T)
- Target(s) (microorganism bound by the targeting peptide) (bacteria): P. gingivalis

Substance: PF-273 (LVGALLIFVALIYMVLKGNADKN; Peptide with targeting and/or antimicrobial activity)
- Organism, effect (microorganisms; S. epidermidis): S. epidermidis (C)
- Target(s) (bacteria; [1]): S. epidermidis; also recorded: M. luteus; also recorded: P. aeruginosa; also recorded: A. baumannii

Substance: PF-313 (YITSHKNARAIIKKFERDEILEEVITHYLNRK; Peptide with targeting and/or antimicrobial activity)
- Organism, effect (microorganisms; S. epidermidis): S. epidermidis (C)
- Target(s) (bacteria; [1]): S. epidermidis; also recorded: C. difficile

Substance: PF-008 (chain 1 MIEIGSIAYLNGGSKKYNHILNQENR; chain 2 MIEIGSIAYLNGGSKKYNHILNQENR; Peptide with targeting and/or antimicrobial activity)
- Organism, effect (microorganisms; B. subtilis): B. subtilis (D)
- Organism, effect (microorganisms; C. jejuni): C. jejuni (R)
- Target(s) (bacteria; [2]): S. epidermidis and M. luteus and MRSA and C. jejuni

Substance: PF-599 (LFEIFKPKH; Peptide with targeting and/or antimicrobial activity)
- Organism, effect (morphology, biofilm and growth disruption) (microorganisms; C. jejuni): C. jejuni (R)
- Organism, effect (morphology, biofilm and growth disruption) (microorganisms; E. faecalis): E. faecalis (A)
- Organism, effect (morphology, biofilm and growth disruption) (microorganisms; MRSA): MRSA (C)
- Organism, effect (morphology, biofilm and growth disruption) (microorganisms; S. epidermidis): S. epidermidis (M)
- Organism, effect (morphology, biofilm and growth disruption) (microorganisms; S. pneumoniae): S. pneumoniae (R)
- Target(s) (microorganism bound by the targeting peptide) (bacteria): S. epidermidis and P. mirabilis and E. coli and C. albicans and MRSA and S. pneumoniae and C. jeikeium

Substance: PF-396 (LIYTILASLGVLTVLQAILGREPKAVKA; Peptide with targeting and/or antimicrobial activity)
- Organism, effect (microorganisms; E. coli): E. coli (C)
- Organism, effect (microorganisms; E. faecalis): E. faecalis (C)
- Organism, effect (microorganisms; MRSA): MRSA (C)
- Organism, effect (microorganisms; S. epidermidis): S. epidermidis (S)
- Target(s) (microorganisms bound by the targeting peptide) (bacteria): S. epidermidis; also recorded: E. coli; also recorded: P. aeruginosa; also recorded: C. albicans; also recorded: E. faecalis; also recorded: C. jeikeium

Substance: PF-188 (ARTFAGRLGTRYFGGLMRSTKA; Peptide with targeting and/or antimicrobial activity)
- Organism, effect (microorganisms; C. jeikeium): C. jeikeium (H)
- Target(s) (bacteria; [1]): S. epidermidis and M. luteus and E. coli and C. albicans and MRSA and E. faecalis

Substance: PF-700 (chain 1 LNWPFTGR; chain 2 LNWPFTGR; Peptide with targeting and/or antimicrobial activity)
- Organism, effect (morphology, biofilm and growth disruption) (microorganisms; S. pneumoniae): S. pneumoniae (C)
- Target(s) (microorganism bound by the targeting peptide) (bacteria): Mycobacteria spp

Substance: PF-417 (DSYFRS; Peptide with targeting and/or antimicrobial activity)
- Organism, effect (microorganisms; MRSA): MRSA (M)
- Organism, effect (microorganisms; S. epidermidis): S. epidermidis (M)
- Organism, effect (microorganisms; S. pneumoniae): S. pneumoniae (M)
- Target(s) (microorganisms bound by the targeting peptide) (bacteria): S. epidermidis; also recorded: C. jeikeium; also recorded: C. jejuni

Substance: PF-695 (chain 1 ALSVMLGNIPLVVPNANQL; chain 2 ALSVMLGNIPLVVPNANQL; Peptide with targeting and/or antimicrobial activity)
- Organism, effect (morphology, biofilm and growth disruption) (microorganisms; E. faecalis): E. faecalis (R)
- Organism, effect (morphology, biofilm and growth disruption) (microorganisms; MRSA): MRSA (R)
- Organism, effect (morphology, biofilm and growth disruption) (microorganisms; S. pneumoniae): S. pneumoniae (C)
- Target(s) (microorganism bound by the targeting peptide) (bacteria): Mycobacteria spp

Substance: PF-425 (MMELVLKTIIGPIVVGVVLRIVDKWLNKDK; Peptide with targeting and/or antimicrobial activity)
- Organism, effect (morphology, biofilm and growth disruption) (microorganisms; C. albicans): C. albicans (A)
- Organism, effect (morphology, biofilm and growth disruption) (microorganisms; C. jejuni): C. jejuni (D)
- Organism, effect (morphology, biofilm and growth disruption) (microorganisms; E. coli): E. coli (C)
- Organism, effect (morphology, biofilm and growth disruption) (microorganisms; E. faecalis): E. faecalis (D)
- Organism, effect (morphology, biofilm and growth disruption) (microorganisms; MRSA): MRSA (D)
- Organism, effect (morphology, biofilm and growth disruption) (microorganisms; P. aeruginosa): P. aeruginosa (A)
- Organism, effect (morphology, biofilm and growth disruption) (microorganisms; S. epidermidis): S. epidermidis (D)
- Organism, effect (morphology, biofilm and growth disruption) (microorganisms; S. pneumoniae): S. pneumoniae (D)
- Target(s) (microorganisms bound by the targeting peptide) (bacteria): S. epidermidis and M. luteus and E. coli and P. aeruginosa and C. albicans and MRSA and S. pneumoniae and C. jeikeium

Substance: PF-C136 (LILSYQASVYPLFAYLCQQKDY; Peptide with targeting and/or antimicrobial activity)
- Organism, effect (morphology, biofilm and growth disruption) (microorganisms; F. nucleatum): F. nucleatum (C)
- Organism, effect (morphology, biofilm and growth disruption) (microorganisms; P. gingivalis): P. gingivalis (R)
- Target(s) (microorganism bound by the targeting peptide) (bacteria): A. naeslundii; also recorded: F. nucleatum; also recorded: P. gingivalis; also recorded: S. mutans; also recorded: T. denticola

Substance: LSLATFAKIFMTRSNWSLKRFNRL [PF-278]
- Organism, effect (microorganisms; C. albicans): C. albicans (B)
- Organism, effect (microorganisms; M. luteus): M. luteus (R)
- Organism, effect (microorganisms; S. epidermidis): S. epidermidis (I)
- Target(s) (bacteria; [1]): M. luteus; also recorded: A. baumannii

Substance: HKNKLNIPHIKS [PF-477]
- Organism, effect (morphology, biofilm and growth disruption) (microorganisms; S. pneumoniae): S. pneumoniae (H)
- Target(s) (microorganisms bound by the targeting peptide) (bacteria): S. epidermidis; also recorded: M. luteus; also recorded: C. albicans; also recorded: S. pneumoniae; also recorded: C. jeikeium; also recorded: C. jejuni

Substance: PF-129 (MKLLARDPWVCAWNDIW; Peptide with targeting and/or antimicrobial activity)
- Organism, effect (microorganisms; C. jeikeium): C. jeikeium (R)
- Organism, effect (microorganisms; S. epidermidis): S. epidermidis (M)
- Target(s) (bacteria; [1]): S. epidermidis and MRSA and E. faecalis and C. jeikeium and C. jejuni

Substance: PF-212 (NDSKASN; Peptide with targeting and/or antimicrobial activity)
- Organism, effect (microorganisms; M. luteus): M. luteus (M)
- Target(s) (bacteria; [1]): M. luteus; also recorded: P. aeruginosa

Substance: PF-653 (chain 1 QSVHPLPAETPVADVI; chain 2 QSVHPLPAETPVADVI; Peptide with targeting and/or antimicrobial activity)
- Organism, effect (morphology, biofilm and growth disruption) (microorganisms; S. pneumoniae): S. pneumoniae (H)
- Target(s) (microorganism bound by the targeting peptide) (bacteria): Mycobacteria spp

Substance: PF-427 (YVLEYHGLRATQDVDAFMAL; Peptide with targeting and/or antimicrobial activity)
- Organism, effect (morphology, biofilm and growth disruption) (microorganisms; E. coli): E. coli (C)
- Organism, effect (morphology, biofilm and growth disruption) (microorganisms; E. faecalis): E. faecalis (C)
- Organism, effect (morphology, biofilm and growth disruption) (microorganisms; MRSA): MRSA (C)
- Organism, effect (morphology, biofilm and growth disruption) (microorganisms; S. pneumoniae): S. pneumoniae (R)
- Target(s) (microorganisms bound by the targeting peptide) (bacteria): M. luteus; also recorded: P. aeruginosa; also recorded: C. albicans; also recorded: C. jejuni

Substance: PF-065 (LEKNTRDNYFIHAIDRIYINTSKGLFPESELVAWG; Peptide with targeting and/or antimicrobial activity)
- Organism, effect (microorganisms; C. jeikeium): C. jeikeium (A)
- Organism, effect (microorganisms; MRSA): MRSA (R)
- Organism, effect (microorganisms; S. epidermidis): S. epidermidis (D)
- Target(s) (bacteria; [2]): M. luteus and E. coli and P. aeruginosa and C. albicans and MRSA and S. pneumoniae and C. jeikeium and C. jejuni

Substance: PF-593 (MEISTLKKEKLHVKDELSQYLANYKK; Peptide with targeting and/or antimicrobial activity)
- Organism, effect (morphology, biofilm and growth disruption) (microorganisms; E. faecalis): E. faecalis (A)
- Target(s) (microorganisms bound by the targeting peptide) (bacteria): C. jeikeium

Substance: PF-702 (chain 1 LSGRLAGRR; chain 2 LSGRLAGRR; Peptide with targeting and/or antimicrobial activity)
- Organism, effect (morphology, biofilm and growth disruption) (microorganisms; S. pneumoniae): S. pneumoniae (H)
- Target(s) (microorganism bound by the targeting peptide) (bacteria): Mycobacteria spp

Substance: PF-C064 (DEEALEMGANLYAQFAIDFLNSKK; Peptide with targeting and/or antimicrobial activity)
- Organism, effect (morphology, biofilm and growth disruption) (microorganisms; F. nucleatum): F. nucleatum (T)
- Target(s) (microorganism bound by the targeting peptide) (bacteria): A. naeslundii; also recorded: F. nucleatum; also recorded: P. gingivalis; also recorded: S. mutans; also recorded: T. denticola

Substance: PF-687 (chain 1 AKRVLSLAVAPHRRQPVQGT; chain 2 AKRVLSLAVAPHRRQPVQGT; Peptide with targeting and/or antimicrobial activity)
- Organism, effect (morphology, biofilm and growth disruption) (microorganisms; S. pneumoniae): S. pneumoniae (A)
- Target(s) (microorganism bound by the targeting peptide) (bacteria): Mycobacteria spp

Substance: DEIKVSDEEIEKFIKENNL [PF-597]
- Organism, effect (morphology, biofilm and growth disruption) (microorganisms; E. faecalis): E. faecalis (A)
- Target(s) (microorganism bound by the targeting peptide) (bacteria): P. mirabilis

Substance: SLQSQLGPCLHDQRH [PF-448]
- Organism, effect (morphology, biofilm and growth disruption) (microorganisms; S. pneumoniae): S. pneumoniae (I)
- Target(s) (microorganisms bound by the targeting peptide) (bacteria): S. epidermidis; also recorded: M. luteus; also recorded: P. mirabilis; also recorded: E. coli; also recorded: S. pneumoniae; also recorded: E. faecalis; also recorded: C. jeikeium; also recorded: C. jejuni

Substance: PF-C057 (YFWWYWVQDCIPYKNNEVWLELSNNMK; Peptide with targeting and/or antimicrobial activity)
- Organism, effect (morphology, biofilm and growth disruption) (microorganisms; S. mutans): S. mutans (I)
- Target(s) (microorganism bound by the targeting peptide) (bacteria): A. naeslundii; also recorded: F. nucleatum; also recorded: P. gingivalis; also recorded: S. mutans

Substance: PF-643 (chain 1 VRCRL; chain 2 VRCRL; Peptide with targeting and/or antimicrobial activity)
- Organism, effect (morphology, biofilm and growth disruption) (microorganisms; E. faecalis): E. faecalis (R)
- Organism, effect (morphology, biofilm and growth disruption) (microorganisms; MRSA): MRSA (C)
- Organism, effect (morphology, biofilm and growth disruption) (microorganisms; S. pneumoniae): S. pneumoniae (R)
- Target(s) (microorganism bound by the targeting peptide) (bacteria): Mycobacteria spp

Substance: MIRIRSPTKKKLNRNSISDWKSNTSGRFFY [PF-283]
- Organism, effect (microorganisms; B. subtilis): B. subtilis (H)
- Organism, effect (microorganisms; S. epidermidis): S. epidermidis (H)
- Target(s) (bacteria; [1]): B. subtilis; also recorded: B. fragilis; also recorded: C. difficile
